Measured values: US20070027130A1, “Tricyclic 6-alkylidene-penem beta-lactamase inhibitors and beta-lactam antibiotic combination: a broad spectrum antibiotic” (priority 2005, published 2007)

Key:
Experiment in all cases: β-Lactamase inhibition, nitrocefin spectrophotometric assay
[1] = target: class A β-lactamase TEM-1 (Escherichia coli, UniProt P62593); format: biochemical, E. coli; settings: nitrocefin 50 μg/ml; 10 min preincubation at 25° C.; pH 7.0
[2] = target: class A β-lactamase Imi-1 (Enterobacter cloacae, UniProt Q46991)
Chain of class A β-lactamase Imi-1 (Q46991 entry or part of it): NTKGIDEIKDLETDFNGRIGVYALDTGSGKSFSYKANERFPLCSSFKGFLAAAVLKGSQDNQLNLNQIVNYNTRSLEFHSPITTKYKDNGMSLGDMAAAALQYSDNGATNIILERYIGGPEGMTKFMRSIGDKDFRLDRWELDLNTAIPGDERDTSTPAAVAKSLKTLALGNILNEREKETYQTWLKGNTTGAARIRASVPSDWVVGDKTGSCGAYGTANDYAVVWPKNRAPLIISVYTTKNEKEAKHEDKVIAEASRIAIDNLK

[3] = target: class B enzyme CcrA (Bacteroides fragilis, UniProt P25910); format: biochemical; settings: nitrocefin 50 μg/ml; 10 min preincubation at 25° C.; pH 7.0; read-out: IC50 Class-B Ccr
Chain of class B enzyme CcrA (P25910 19-249): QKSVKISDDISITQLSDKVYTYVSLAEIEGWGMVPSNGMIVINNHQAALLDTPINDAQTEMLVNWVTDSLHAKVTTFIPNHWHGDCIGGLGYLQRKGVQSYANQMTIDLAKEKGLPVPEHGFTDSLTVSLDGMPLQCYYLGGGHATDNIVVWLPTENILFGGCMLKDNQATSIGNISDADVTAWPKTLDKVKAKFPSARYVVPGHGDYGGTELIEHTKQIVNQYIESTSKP

[4] = target: class C enzyme AmpC (Enterobacter cloacae, UniProt P05364); format: biochemical
Chain of class C enzyme AmpC (P05364 21-381): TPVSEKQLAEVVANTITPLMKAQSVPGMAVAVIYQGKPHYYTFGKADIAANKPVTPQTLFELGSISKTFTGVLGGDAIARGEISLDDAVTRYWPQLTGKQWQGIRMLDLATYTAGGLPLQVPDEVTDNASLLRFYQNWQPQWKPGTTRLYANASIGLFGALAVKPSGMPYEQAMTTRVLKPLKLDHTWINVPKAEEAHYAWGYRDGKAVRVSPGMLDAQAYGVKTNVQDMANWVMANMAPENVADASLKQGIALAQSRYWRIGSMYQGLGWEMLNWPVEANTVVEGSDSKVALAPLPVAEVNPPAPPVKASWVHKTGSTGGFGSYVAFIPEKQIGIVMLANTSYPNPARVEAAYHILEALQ

Chain of class A β-lactamase TEM-1 (P62593 24-286 limits assumed): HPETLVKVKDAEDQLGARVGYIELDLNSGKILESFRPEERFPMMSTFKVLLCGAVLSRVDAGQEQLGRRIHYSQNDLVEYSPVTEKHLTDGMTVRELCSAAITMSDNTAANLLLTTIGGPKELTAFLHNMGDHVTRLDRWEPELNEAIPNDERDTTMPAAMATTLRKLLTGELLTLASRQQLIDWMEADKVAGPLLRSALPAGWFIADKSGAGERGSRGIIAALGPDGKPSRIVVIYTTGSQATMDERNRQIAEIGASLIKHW

| Compound | IC50 [1] [nM] | IC50 [2] [nM] | IC50 [3] [nM] | IC50 [4] [nM] |
| --- | --- | --- | --- | --- |
| O=C(O)C1=CS[C@@H]2/C(=C\c3cn4c5c(sc4n3)COCC5)C(=O)N12 [Compound 2, (5R),(6Z)-6-(5,8-dihydro-6H-imidazo[2,1-b]pyrano[4,3-d][1,3]thiazol-2-ylmethylene)-7-oxo-4-thia-1-azabicyclo[3.2.0]hept-2-ene-2-carboxylic acid] | 2.8 | 100 | 200 | 1.5 |
| O=C(O)C1=CS[C@@H]2/C(=C\c3cn4c5c(sc4n3)CCC5)C(=O)N12 [Compound 1, (5R),(6Z)-6-(6,7-dihydro-5H-cyclopenta[d]imidazo[2,1-b][1,3]thiazol-2-ylmethylene)-7-oxo-4-thia-1-azabicyclo[3.2.0]hept-2-ene-2-carboxylic acid] | 1.4 |  | 240 | 2.4 |
